Laboratory results reported in article PMC11243419, “Ruthenium p-Cymene Complexes Incorporating Substituted Pyridine–Quinoline-Based Ligands: Synthesis, Characterization, and Cytotoxic Properties” (Molecules, 2024).
Like-named read-outs stand apart in the source and are kept apart here.

Legend:
[1] = Solubility (qualitative); assay type: physicochemical; conditions: solvents
Method: The mononuclear organometallic complex 1-Cl comprising the pqhyme ligand was isolated as an orange–brown solid in high yield. […] Subsequent treatment with a saturated aqueous KPF6 solution afforded, via a metathesis reaction, the hexafluorido analog 1-PF6. Both complexes are air-stable in the solid state and melt with decomposition at 155 °C and 137 °C, respectively. The FT-IR spectra (ATR mode) of both complexes are almost identical, as expected for complexes that display very similar structures. For 1-Cl the presence of water of crystallization is evident from the intense and broad bands at ∼3350–3250 cm^−1 due to the antisymmetric and symmetric ν(O-H) stretching vibration modes. The O–H stretching vibration band from pending -CH2OH moiety is hampered within the broadness of the band reported above. Also, the strong band at approximately 1650 cm^−1 is due to the δ(H–O-H) bending mode. The characteristic bands at 3061 cm^−1, and in the region of 2998–2850 cm^−1 correspond to ν(C–H) aromatic and aliphatic stretching vibrations modes of the ligand, while the medium intensity band at ∼800 cm^−1 is typical for the stretching vibration mode of ν(Ru–C). In the region of 800-600 cm^−1, the spectrum is dominated by the very strong in-plane and out-of-plane deformation bands from the pyridine ring of pqhyme ligand. For 1-PF6, the two very strong bands at 840 cm^−1 and 557 cm^−1 are assigned to the ν3(P–F) and ν4(P–F) vibration modes of the PF6^− anion (Figure S1 of the Supplementary Materials).
The [Ru(η^6-p-cymene)(pqca)Cl]Cl complex 2-Cl was isolated in 85% yield as an orange–red air-stable solid that melts at 125 °C. Upon further heating, decomposition occurs at 150 °C, accompanied by gas evolution, leading to a black solid.
The [Ru(η^6-p-cymene)(pqcame)Cl]Cl analog 3-Cl was isolated almost quantitatively as a dark brown air-stable solid that decomposes at 111 °C. […] The FT-IR spectrum of 3-Cl is characterized by a strong asymmetric stretching vibration typical of the νas(C=O) of the ester moiety at 1722 cm^−1, shifted to higher wave numbers compared with 2-Cl. […]

[2] = Solution stability by 1H NMR spectroscopy; assay type: physicochemical
Text: The solution NMR spectra (^1H and ^13C{^1H}) of 1-Cl and 1-PF6 in CDCl3 feature the characteristic set of resonances of the pqhyme and p-cymene ligands supporting the proposed formulae of the compounds (Figures S2–S5 of the Supplementary Materials). Atom numbering for NMR assignment is included in Scheme 1. […] The separate and well-resolved resonance signals at δ 5.92–5.61 in a ratio of 1:1:1:1 (according to integration) are typical of the p-cymene ring protons. The characteristic singlet resonance signals at δ 5.47 for 1-Cl and 5.48 for 1-PF6 are attributed to the -CH2 protons of the pending -CH2OH moiety. These were upfield shifted compared to the p-cymene ligand of the metal precursor [43]. In addition, the septet resonance signals at δ 2.29 for 1-Cl and δ 2.44 for 1-PF6 are indicative of the -CH(CH3)2 proton, while the two […] at δ 0.87/0.91 (1-Cl) and δ 0.93/0.97 (1-PF6) can be assigned to the methyl protons of the isopropyl group. For 1-Cl, and after two days of standing in CDCl3, free p-cymene was detected (c.a. 2.6%) along with the formation of new unknown species. The ^1H NMR pattern of the spectrum remained practically unchanged (Figure S7).
The ^1H NMR spectrum of 2-Cl was recorded in DMSO-d6 at ambient temperature. […] The stability of 2-Cl in DMSO is shown below in Section 2.1.1. […] The singlet resonance at δ 8.94 is typical for H3 of the bidentate ligand, while the four separate doublet resonance signals in between δ 6.19, 6.13, 6.03, and 5.97 correspond to the p-cymene ring protons. […] In this region, the CH3 protons of the -CH-(CH3)2 moiety appear as two doublet resonances at δ 0.81 and 0.77, respectively. The ^13C NMR signals of 2-Cl were assigned by two-dimensional ^1H–^13C HSQC and ^1H–^13C HMBC methods and compared with the literature data from similar complexes. […] Analyzing the spectrum, the resonance signal at δ 166.31 is assigned to the carbon atom of the carboxylic acid group of pqca. In the aliphatic region of the spectrum, the carbon atoms from the CH3 groups of p-cymene ligand appear as intense singlets at δ 21.58, 21.21, and 18.18, respectively (Figures S12–S15).
(§1) The cytotoxicity studies of the organometallic ruthenium(II) complexes 1-Cl, 2-Cl, and 3-PF6 were carried out in dimethyl sulfoxide (DMSO) while 3-Cl was dissolved in water. According to UV–Vis spectroscopy, complexes 1-Cl and 2-Cl are stable in the media that are used for the biological assays (Figures S25–S26), while 3-Cl undergoes hydrolysis approximately 3 h after with isosbestic points at 276 nm and 322 nm, respectively (Figure S27). […] In any case, for the biological assays, freshly prepared solutions were prepared that were utilized within approximately 5–10 min.

[3] = tested on: HeLa cells; assay: MTT cell viability assay, HeLa cells; assay type: cell-based, human; conditions: 48 h incubation, mean ± SD, stock in DMSO (3-Cl and cisplatin in water)
Method: (§2) Cell viability tests of the ligand and metal precursors (pqhyme, pqca, pcqame, [Ru(η^6-p-cymene)(μ-Cl)Cl]2) and the ruthenium(II)–arene complexes 1-Cl, 2-Cl and 3-Cl were conducted in two cell lines, including epithelial-like HEK293T cells (human embryonic kidney cells) and tumor-derived HeLa cells (cervical cancer cells), by MTT colorimetric assay, after 48 h incubation (MTT = 3-(4,5-dimethylthiazol-2-yl)-2,5-diphenyl tetrazolium bromide). For comparison, the 3-PF6 analog was also studied. Generally, a 5 to 10 mM stock solution of the complexes in DMSO (H2O for cisplatin) was prepared and diluted appropriately to reach the final concentration reported in the Materials and Methods. HeLa cancer cells were chosen since this cell line is widely used in cytotoxicity studies while the non-cancerous HEK293T cell line was used for comparison. Cytotoxicity results of all substances studied in both cell lines expressed as IC50 mean values, are summarized in Table 1, including that of cisplatin, which served as control under the same conditions. The IC50 values were calculated using a dose–response model, which was obtained from sigmoidal fitting of dose–response curves.
(§3) The HEK293T cell line (immortalized human embryonic kidney cells) and the HeLa cell line (cervical cancer cells) were obtained from ATCC. Cells were cultured at 37 °C and 5% CO2 in high glucose Dulbecco’s modified Eagle’s medium (DMEM) containing 10% fetal bovine serum (FBS), penicillin (100 units/mL), and streptomycin (100 μg/mL).
(§4) Ruthenium complexes were diluted in stock solutions of 10 mM in dimethyl sulfoxide (DMSO). A similar concentration of cisplatin dissolved in H2O was used. Cells were seeded in sterile tissue culture 96-well plates at a density of 3,000 cells per well. After 24 h, the medium was removed and replaced with fresh media containing various concentrations (0.01 μΜ, 0.1 μΜ, 1 μΜ, 10 μΜ, 25 μΜ, 40 μΜ, 55 μΜ, 70 μΜ, 85 μΜ, and 100 μΜ) of the compounds to be tested and were further incubated for 48 h at 37 °C. DMSO was used as vehicle at ≤1%. Culture medium containing the compounds (or DMSO) was removed and 100 μL of 0.5 mg/mL MTT reagent (Applichem) diluted in DMEM was added to the cells for 3 h at 37 °C. After 3 h incubation, MTT was removed and 200 μL of DMSO was added. Absorbance values of formazan were measured at 540 nm using a BioTek Synergy H1 microplate reader (Agilent). All compounds were tested in triplicate. The results were statistically analyzed using the nonlinear regression by GraphPad PRISM (Version 9) to extract IC50 values.

[4] = Solution stability by UV-Vis spectroscopy; assay type: physicochemical; conditions: for Stability in the media used for the biological assays (UV-Vis): DMSO, ambient temperature
Method: To ensure the stability of the complexes for the in vitro cytotoxicity measurements, UV–Vis and ^1H NMR spectroscopic techniques were undertaken. UV–Vis spectra were recorded in DMSO (not dry), for complexes 1-Cl and 2-Cl (Figures S25–S27) and in water for complex 3-Cl (Figure 3), at ambient temperature, immediately after dissolution. The absorption spectra of 1-Cl and 2-Cl show a broad absorption band centered at ~ 435 nm, as reported for other ruthenium(II) half-sandwich arene complexes. For 3-Cl, this band becomes weaker and is blue-shifted to 422 nm. Ongoing from 1-Cl to 3-Cl, the set of high energy bands observed at 354 nm/296 nm (1-Cl), 357 nm/298 nm (2-Cl), and 357 nm/293 nm (3-Cl), are typical of metal-to-ligand charge transfer absorption bands (MLCT) and ligand-centered π–π* transitions. Within the series, ε values for these transitions range from 3000 to 9600 dm^3 mol^−1 cm^−1, with the methyl ester analog 3-Cl, displaying the higher extinction coefficient value of ∼9600 dm^3 mol^−1 cm^−1.
as §1

[5] = tested on: HEK293T cells; assay: MTT cell viability assay, HEK293T cells; assay type: cell-based, human; conditions: 48 h incubation, mean ± SD, stock in DMSO (3-Cl and cisplatin in water)
Method: as §2, §3, §4

[6] = tested on: carcinoma human T24 bladder cells; parameters: method as in PMID 37569273; conditions: T24 bladder cells vs other cell lines; cited from earlier work
[7] = tested on: HeLa cells; conditions: cited from earlier work

## [Ru(η^6-p-cymene)(pqhyme)Cl][Cl] [1-Cl]
[1]
  Solubility: dissolves in DMSO, and water and is less soluble in CHCl3
[2]; DMSO-d6
  Stability in DMSO-d6 (1H NMR): stable
[2]; after two days of standing in CDCl3
  Free p-cymene detected (1H NMR): ~2.6%
[3]
  IC50: 119 ± 1.29 µM
[4]
  Stability in the media used for the biological assays (UV-Vis): stable

## O=C(O)c1cc(-c2ccccn2)nc2ccccc12 [pqca, 4-carboxy-2-(pyridin-2-yl)quinoline]
[5]; Homo sapiens, HEK-293T
  IC50: 87.5 ± 1.3 µM
[3]; Homo sapiens, HeLa
  IC50: 100 ± 3.47 µM

## [Ru(η^6-p-cymene)(pqcame)Cl][Cl] [3-Cl]
[5]
  IC50: > 115 µM
[1]
  Solubility: dissolves in water, DMSO, and other polar solvents
[3]
  IC50: > 80 µM
[4]; in water
  Time until hydrolysis (UV-Vis, isosbestic points at 276 nm and 322 nm): approximately 3 h

## Cc1ccc(C(C)C)cc1.O=C(O)c1ccnc(-c2cc(C(=O)O)ccn2)c1.[Cl-].[Cl-].[Ru+2]
[6]
  Selectivity among cell lines: high selectivity toward carcinoma human T24 bladder cells

## [Ru(η^6-p-cymene)(pqca)Cl][Cl] [2-Cl]
[5]
  IC50: 180 ± 49.1 µM
[1]
  Solubility: soluble in polar organic solvents (MeOH, EtOH, water) including DMSO and DMF
[2]; DMSO-d6
  Period of 1H NMR monitoring showing stability: more than 72 h
  Stability in DMSO-d6 (1H NMR): practically remains stable
[3]
  IC50: 162 ± 21.3 µM
[4]
  Stability in the media used for the biological assays (UV-Vis): stable

## Cc1ccc(C(C)C)cc1.Cc1ccc(C(C)C)cc1.[Cl][Ru][Cl].[Cl][Ru][Cl] [[Ru(p-cymene)Cl2]2, [Ru(η^6-p-cymene)(μ-Cl)Cl]2]
[5]
  IC50: 48.3 ± 1.66 µM
[3]
  IC50: 48.9 ± 1.73 µM

## 4-carboxymethyl-2-(pyridin-2-yl)quinoline [pqcame]
[5]
  IC50: 48.9 ± 3.19 µM
[3]
  IC50: 56.4 ± 12.7 µM

## Cc1ccc(C(C)C)cc1.Nc1ccc(O)cc1.[Cl][Ru][Cl]
[7]
  IC50: 171 µM

## [Ru(η^6-p-cymene)(pqcame)Cl][PF6] [3-PF6]
[5]
  IC50: 145 ± 16.2 µM
[3]
  IC50: 134 ± 3.3 µM

## OCc1cc(-c2ccccn2)nc2ccccc12 [pqhyme, 4-hydroxymethyl-2-(pyridin-2-yl)quinoline]
[5]; Homo sapiens, HEK-293T
  IC50: 2.67 ± 1.23 µM
[3]; Homo sapiens, HeLa
  IC50: 12.8 ± 1.01 µM

## N.N.[Cl][Pt][Cl] [cis-platin, cisplatin, reference compound]
[5]
  IC50: 16.4 ± 7.62 µM
[3]
  IC50: 9.26 ± 1.09 µM

## Cc1ccc(C(C)C)cc1.Nc1ccccc1O.[Cl][Ru][Cl]
[7]
  IC50: 82.9 µM
